ChEMBL document CHEMBL3286186, “Design of α7 nicotinic acetylcholine receptor ligands in quinuclidine, tropane and quinazoline series. Chemistry, molecular modeling, radiochemistry, in vitro and in rats evaluations of a [(18)F] quinuclidine derivative” (Eur J Med Chem, 2014)

Key:
[1] = biological target: Neuronal acetylcholine receptor subunit alpha-7 (Rattus norvegicus, UniProt Q05941); assay: Displacement of [125I]-alpha-bungarotoxin from alpha7 nicotinic acetylcholine receptor in Wistar rat frontal cortex by gamma counting; assay type: tissue-based
Chain of Neuronal acetylcholine receptor subunit alpha-7 (Q05941 whole entry): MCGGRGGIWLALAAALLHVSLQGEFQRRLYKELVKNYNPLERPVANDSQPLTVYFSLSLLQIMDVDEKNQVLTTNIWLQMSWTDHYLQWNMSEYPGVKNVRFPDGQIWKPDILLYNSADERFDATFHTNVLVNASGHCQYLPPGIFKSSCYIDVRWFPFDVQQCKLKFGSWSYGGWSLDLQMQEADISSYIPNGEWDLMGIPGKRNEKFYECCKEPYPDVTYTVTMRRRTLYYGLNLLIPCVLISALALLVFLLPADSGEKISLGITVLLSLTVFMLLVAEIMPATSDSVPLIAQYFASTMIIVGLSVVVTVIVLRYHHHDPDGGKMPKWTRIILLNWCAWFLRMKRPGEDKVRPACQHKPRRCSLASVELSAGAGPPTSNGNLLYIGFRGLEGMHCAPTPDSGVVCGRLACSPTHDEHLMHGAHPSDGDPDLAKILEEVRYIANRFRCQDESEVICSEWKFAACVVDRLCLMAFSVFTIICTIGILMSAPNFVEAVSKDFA

Cortex = assay: Biodistribution in Wistar rat cortex at 5 +/- 2 MBq, iv after 60 mins by gamma counting in presence of alpha7 nAChR antagonist methyllycaconitine; assay type: organism-based; conditions: in vivo, 1 h
Hippocampus = assay: Biodistribution in Wistar rat hippocampus at 5 +/- 2 MBq, iv after 60 mins by gamma counting in presence of alpha7 nAChR antagonist methyllycaconitine; assay type: organism-based; conditions: in vivo, 1 h
Striatum = assay: Biodistribution in Wistar rat striatum at 5 +/- 2 MBq, iv after 60 mins by gamma counting in presence of alpha7 nAChR antagonist methyllycaconitine; assay type: organism-based; conditions: in vivo, 1 h
Hypothalamus = assay: Biodistribution in Wistar rat hypothalamus at 5 +/- 2 MBq, iv after 60 mins by gamma counting in presence of alpha7 nAChR antagonist methyllycaconitine; assay type: organism-based; conditions: in vivo, 1 h
Brain = assay: Biodistribution in Wistar rat brain at 5 +/- 2 MBq, iv after 60 mins by gamma counting; assay type: ADME, organism-based; conditions: in vivo, 1 h
Cerebellum = assay: Biodistribution in Wistar rat cerebellum at 5 +/- 2 MBq, iv after 60 mins by gamma counting in presence of alpha7 nAChR antagonist methyllycaconitine; assay type: organism-based; conditions: in vivo, 1 h
Midbrain = assay: Biodistribution in Wistar rat midbrain at 5 +/- 2 MBq, iv after 60 mins by gamma counting in presence of alpha7 nAChR antagonist methyllycaconitine; assay type: organism-based, Brain; conditions: in vivo, 1 h

Structure (SMILES) | Ki [1] [nM] | also measured
CN1[C@@H]2CC[C@H]1C[C@@H](NC(=O)c1ccc(Br)s1)C2 | 78 | 
CN1[C@@H]2CC[C@H]1C[C@@H](NC(=O)c1ccc(-c3ccco3)s1)C2 | 14 | 
CN1[C@@H]2CC[C@H]1C[C@@H](NC(=O)c1ccc3occc3c1)C2 | 133 | 
CN1[C@@H]2CC[C@H]1C[C@@H](NC(=O)c1ccc(Cl)cc1)C2 | > 1000 | 
CN1[C@@H]2CC[C@H]1C[C@@H](NC(=O)c1ccc3sccc3c1)C2 | 108 | 
O=C(N[C@H]1CN2CCC1CC2)c1ccc([18F])cc1 |  | Drug uptake (Cortex): Not Active; Drug uptake (Hippocampus): Not Active; Drug uptake (Striatum): Not Active; Drug uptake (Hypothalamus): Not Active; Drug uptake (Brain): Active; Drug uptake (Cerebellum): Not Active; Drug uptake (Midbrain): Not Active
CN1[C@@H]2CC[C@H]1C[C@@H](NC(=O)c1cccs1)C2 | > 1000 | 
CN1[C@@H]2CC[C@H]1C[C@@H](NC(=O)c1ccc(-c3cccs3)s1)C2 | 12 | 
